{"source": "patent US20250195484A1", "about": "“CEREBLON LIGANDS AND USES THEREOF” (priority 2022, published 2025)", "data": [{"molecular_target": "T1, STAT3 (Homo sapiens, UniProt P40763)", "T1 construct": "host or cells: HeLa (STAT3-HiBiT CRISPR knock-in clone)", "T1 sequence (P40763 whole entry)": "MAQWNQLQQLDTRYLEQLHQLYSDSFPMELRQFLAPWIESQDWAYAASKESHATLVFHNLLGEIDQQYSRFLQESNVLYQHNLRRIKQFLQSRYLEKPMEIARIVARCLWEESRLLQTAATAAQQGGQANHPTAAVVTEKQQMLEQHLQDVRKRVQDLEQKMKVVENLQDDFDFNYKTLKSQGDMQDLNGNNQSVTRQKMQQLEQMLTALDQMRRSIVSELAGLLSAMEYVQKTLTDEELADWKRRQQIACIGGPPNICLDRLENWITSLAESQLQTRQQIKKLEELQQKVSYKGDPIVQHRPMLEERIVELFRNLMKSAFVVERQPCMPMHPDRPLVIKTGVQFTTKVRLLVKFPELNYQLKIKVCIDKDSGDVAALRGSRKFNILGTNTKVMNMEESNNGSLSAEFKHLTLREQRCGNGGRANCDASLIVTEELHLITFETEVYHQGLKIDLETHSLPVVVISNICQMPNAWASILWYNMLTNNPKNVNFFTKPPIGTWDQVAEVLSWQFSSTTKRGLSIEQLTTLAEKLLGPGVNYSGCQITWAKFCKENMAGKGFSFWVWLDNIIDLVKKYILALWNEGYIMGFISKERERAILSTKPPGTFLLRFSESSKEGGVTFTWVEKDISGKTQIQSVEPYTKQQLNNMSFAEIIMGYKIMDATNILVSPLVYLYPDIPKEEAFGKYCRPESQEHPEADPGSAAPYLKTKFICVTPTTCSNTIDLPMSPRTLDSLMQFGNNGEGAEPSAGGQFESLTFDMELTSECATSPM", "assay": "STAT3 degradation HiBiT assay (STAT3-HIBIT KI HeLa)", "type": "cell-based", "details": "STAT3-HIBIT KI HeLa cells, 24 hours", "procedure": "STAT3-HIBIT KI HeLa cell line was purchased from Promega. This cell line is a clone created by using CRISPR-Cas9 to fuse HiBIT to the 3′ end of STAT3 in HeLa cells. DMEM medium and FBS were purchased from Gibco/Thermo Fisher Scientific. STAT3 degradation was determined based on quantification of luminescent signal using Nano-Glo HiBIT Lytic Detection System. In a typical procedure, cells seeded at 20000 cells per well in 96-well white plates (Corning) were incubated with serially diluted compounds for 24 hours at 37° C. with 5% CO2. At the end of treatment, Nano-Glo HiBIT Lytic Detection reagents was added to the wells and luminescence was acquired on TECAN PSARK plate reader. Untreated cells were used as control. Data points were fit with a four-parameter equation to generate a concentration-response curve. IC50 values were calculated using a nonlinear regression analysis of the mean±SD from triplicate.", "units": {"DC50": "µM", "Dmax": "%"}, "values": [{"smiles": "NC(=O)CC[C@H](NC(=O)[C@@H]1CC[C@@H]2CCN(C(=O)CCCCC(=O)N3CCC4(CC3)COc3c4ccc4c3CN([C@H]3CCC(=O)NC3=O)C4=O)C[C@H](NC(=O)c3cc4cc(C(F)(F)P(=O)(O)O)ccc4s3)C(=O)N21)C(=O)NC(c1ccccc1)c1ccccc1", "note": "[STD 22, ((2-(((5S,8S,10aR)-8-(((S)-5-amino-1-(benzhydrylamino)-1,5-dioxopentan-2-yl)carbamoyl)-3-(6-(7-((S)-2,6-dioxopiperidin-3-yl)-6-oxo-7,8-dihydro-2H,6H-spiro[furo[2,3-e]isoindole-3,4′-piperidin]-1′-yl)-6-oxohexanoyl)-6-oxodecahydropyrrolo[1,2-a][1,5]diazocin-5-yl)carbamoyl)benzo[b]thiophen-5-yl)difluoromethyl)phosphonic acid]", "DC50": "1 to 10", "Dmax": "< 40"}]}, {"molecular_target": "T2, CBP (Homo sapiens, UniProt Q92793)", "T2 construct": "endogenous in cells; host or cells: 22Rv1", "T2 sequence (Q92793 whole entry)": "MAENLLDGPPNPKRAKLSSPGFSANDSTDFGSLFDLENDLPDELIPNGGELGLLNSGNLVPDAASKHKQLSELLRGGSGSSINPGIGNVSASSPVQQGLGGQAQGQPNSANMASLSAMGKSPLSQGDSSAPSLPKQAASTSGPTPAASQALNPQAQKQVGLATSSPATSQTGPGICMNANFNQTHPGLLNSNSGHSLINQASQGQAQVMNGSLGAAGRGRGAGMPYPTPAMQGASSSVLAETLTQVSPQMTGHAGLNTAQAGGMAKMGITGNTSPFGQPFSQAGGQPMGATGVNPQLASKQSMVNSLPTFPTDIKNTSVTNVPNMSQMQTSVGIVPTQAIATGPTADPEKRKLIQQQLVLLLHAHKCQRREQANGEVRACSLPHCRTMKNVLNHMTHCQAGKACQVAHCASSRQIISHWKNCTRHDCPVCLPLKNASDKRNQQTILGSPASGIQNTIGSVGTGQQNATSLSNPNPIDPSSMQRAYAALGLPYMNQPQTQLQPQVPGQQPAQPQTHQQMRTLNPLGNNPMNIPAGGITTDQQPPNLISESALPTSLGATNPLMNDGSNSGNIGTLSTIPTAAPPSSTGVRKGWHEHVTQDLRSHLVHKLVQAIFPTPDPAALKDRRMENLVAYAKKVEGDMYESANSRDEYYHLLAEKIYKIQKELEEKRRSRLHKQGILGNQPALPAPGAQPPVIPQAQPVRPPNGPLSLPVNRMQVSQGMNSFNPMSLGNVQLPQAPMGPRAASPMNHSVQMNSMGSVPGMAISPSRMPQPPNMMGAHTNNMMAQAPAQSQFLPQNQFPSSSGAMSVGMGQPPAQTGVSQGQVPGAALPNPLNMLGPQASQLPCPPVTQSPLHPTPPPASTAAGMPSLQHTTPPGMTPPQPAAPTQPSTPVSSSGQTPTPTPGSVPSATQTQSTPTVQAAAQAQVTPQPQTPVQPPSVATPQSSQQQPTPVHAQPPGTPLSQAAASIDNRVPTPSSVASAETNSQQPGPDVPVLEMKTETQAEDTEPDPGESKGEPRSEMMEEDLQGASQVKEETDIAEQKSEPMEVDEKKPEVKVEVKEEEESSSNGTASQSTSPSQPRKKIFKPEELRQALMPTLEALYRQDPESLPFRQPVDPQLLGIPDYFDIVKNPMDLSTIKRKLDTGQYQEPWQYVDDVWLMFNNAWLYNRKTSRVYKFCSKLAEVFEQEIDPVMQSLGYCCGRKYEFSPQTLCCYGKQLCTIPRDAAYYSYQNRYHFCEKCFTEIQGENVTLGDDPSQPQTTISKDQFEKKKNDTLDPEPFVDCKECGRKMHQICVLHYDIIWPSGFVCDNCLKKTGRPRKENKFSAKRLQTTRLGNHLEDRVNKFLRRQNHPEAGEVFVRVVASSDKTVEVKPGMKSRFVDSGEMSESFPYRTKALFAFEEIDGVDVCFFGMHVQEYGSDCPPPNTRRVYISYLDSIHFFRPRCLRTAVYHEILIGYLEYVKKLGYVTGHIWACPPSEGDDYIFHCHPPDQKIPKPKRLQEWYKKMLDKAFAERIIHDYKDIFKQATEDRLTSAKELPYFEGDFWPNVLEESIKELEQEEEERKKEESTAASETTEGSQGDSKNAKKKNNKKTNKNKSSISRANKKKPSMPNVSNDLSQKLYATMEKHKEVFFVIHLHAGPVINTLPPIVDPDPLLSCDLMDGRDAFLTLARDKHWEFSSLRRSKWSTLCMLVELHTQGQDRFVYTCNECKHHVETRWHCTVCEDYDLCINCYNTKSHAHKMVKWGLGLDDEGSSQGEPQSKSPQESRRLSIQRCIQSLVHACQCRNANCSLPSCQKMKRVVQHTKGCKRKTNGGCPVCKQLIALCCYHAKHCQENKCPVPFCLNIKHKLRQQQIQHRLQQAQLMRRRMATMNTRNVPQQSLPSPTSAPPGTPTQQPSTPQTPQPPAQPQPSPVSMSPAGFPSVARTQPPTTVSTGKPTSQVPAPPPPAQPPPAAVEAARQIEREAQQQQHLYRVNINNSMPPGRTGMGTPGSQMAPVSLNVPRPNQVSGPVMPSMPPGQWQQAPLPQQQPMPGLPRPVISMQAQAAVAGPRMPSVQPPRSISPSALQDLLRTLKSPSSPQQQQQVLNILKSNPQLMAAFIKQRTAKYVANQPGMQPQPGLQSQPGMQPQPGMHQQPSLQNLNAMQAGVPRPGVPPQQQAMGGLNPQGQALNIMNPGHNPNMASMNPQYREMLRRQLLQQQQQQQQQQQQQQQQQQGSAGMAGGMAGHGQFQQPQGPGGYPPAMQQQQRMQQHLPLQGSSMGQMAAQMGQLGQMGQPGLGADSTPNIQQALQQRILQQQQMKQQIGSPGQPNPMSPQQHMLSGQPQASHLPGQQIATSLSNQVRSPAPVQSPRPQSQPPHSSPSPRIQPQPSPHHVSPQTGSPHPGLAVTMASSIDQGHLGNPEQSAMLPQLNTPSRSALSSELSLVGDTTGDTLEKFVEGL", "assay": "CBP degradation, western blot, 22Rv1", "type": "cell-based", "details": "22Rv1, 5 h", "procedure": "(§1) WesternT Blot Analysis. Western blot analysis was performed essentially as described previously. The cells treated with indicated compounds were lysed in Radioimmunoprecipitation Assay Protein Lysis and Extraction Buffer (25 mmol/L Tris.HCl, pH 7.6, 150 mmol/L NaCl, 1% Nonidet P-40, 1% sodium deoxycholate, and 0.1% sodium dodecyl sulfate) containing proteinase inhibitor cocktail (Roche Diagnostics, Mannheim, Germany). Equal amounts of total protein were electrophoresed through 10% SDS-polyacrylamide gels after determination of protein concentration by BCA assay (Fisher Scientific, Pittsburgh, PA). The separated protein bands were transferred onto PVDF membranes (GE Healthcare Life Sciences, Marlborough, MA) and blotted against different antibodies, as indicated. The blots were scanned, and the band intensities were quantified using GelQuant.NET software provided by biochemlabsolutions.com. The relative mean intensity of target proteins was expressed after normalization to the intensity of glyceraldehyde-3-phosphate dehydrogenase bands.", "units": {"DC50": "µM"}, "values": [{"smiles": "CC(=O)N1CCc2c(c(N3CCCc4cc(-c5cnn(C)c5)c(C(F)F)cc43)nn2C2CCN(CC(=O)N3CCC4(CC3)COc3c4ccc4c3CN([C@H]3CCC(=O)NC3=O)C4=O)CC2)C1", "note": "[CPD-001, (S)-3-(1′-(2-(4-(5-acetyl-3-(7-(difluoromethyl)-6-(1-methyl-1H-pyrazol-4-yl)-3,4-dihydroquinolin-1(2H)-yl)-4,5,6,7-tetrahydro-1H-pyrazolo[4,3-c]pyridin-1-yl)piperidin-1-yl)acetyl)-6-oxo-6,8-dihydro-2H,7H-spiro[furo[2,3-e]isoindole-3,4′-piperidin]-7-yl)piperidine-2,6-dione]", "CBP Degradation DCmax": "A (A (≥90%))", "DC50": "< 0.0001"}, {"smiles": "CC(=O)N1CCc2c(c(N3CCCc4cc(-c5cnn(C)c5)c(C(F)F)cc43)nn2C2CCN(C(=O)CN3CCC4(CC3)COc3c4ccc4c3CN([C@H]3CCC(=O)NC3=O)C4=O)CC2)C1", "note": "[CPD-002, (S)-3-(1′-(2-(4-(5-acetyl-3-(7-(difluoromethyl)-6-(1-methyl-1H-pyrazol-4-yl)-3,4-dihydroquinolin-1(2H)-yl)-4,5,6,7-tetrahydro-1H-pyrazolo[4,3-c]pyridin-1-yl)piperidin-1-yl)-2-oxoethyl)-6-oxo-6,8-dihydro-2H,7H-spiro[furo[2,3-e]isoindole-3,4′-piperidin]-7-yl)piperidine-2,6-dione]", "CBP Degradation DCmax": "A (A (≥90%))", "DC50": "< 0.0001"}]}, {"molecular_target": "CRBN/DDB1 (Homo sapiens, UniProt Q96SW2)", "sequence (Q96SW2 whole entry)": "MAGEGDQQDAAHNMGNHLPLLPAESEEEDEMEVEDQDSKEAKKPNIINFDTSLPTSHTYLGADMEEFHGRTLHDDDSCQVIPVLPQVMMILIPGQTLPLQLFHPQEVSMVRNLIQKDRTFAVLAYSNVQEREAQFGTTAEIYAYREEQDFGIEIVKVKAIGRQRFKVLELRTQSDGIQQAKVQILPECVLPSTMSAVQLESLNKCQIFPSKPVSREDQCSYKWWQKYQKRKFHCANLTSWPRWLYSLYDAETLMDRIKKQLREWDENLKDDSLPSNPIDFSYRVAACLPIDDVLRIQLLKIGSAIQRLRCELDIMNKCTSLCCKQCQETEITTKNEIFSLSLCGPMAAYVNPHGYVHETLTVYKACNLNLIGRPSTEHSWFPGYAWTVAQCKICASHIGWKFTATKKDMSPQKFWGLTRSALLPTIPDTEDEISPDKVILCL", "sequence (Q16531 whole entry, further chain)": "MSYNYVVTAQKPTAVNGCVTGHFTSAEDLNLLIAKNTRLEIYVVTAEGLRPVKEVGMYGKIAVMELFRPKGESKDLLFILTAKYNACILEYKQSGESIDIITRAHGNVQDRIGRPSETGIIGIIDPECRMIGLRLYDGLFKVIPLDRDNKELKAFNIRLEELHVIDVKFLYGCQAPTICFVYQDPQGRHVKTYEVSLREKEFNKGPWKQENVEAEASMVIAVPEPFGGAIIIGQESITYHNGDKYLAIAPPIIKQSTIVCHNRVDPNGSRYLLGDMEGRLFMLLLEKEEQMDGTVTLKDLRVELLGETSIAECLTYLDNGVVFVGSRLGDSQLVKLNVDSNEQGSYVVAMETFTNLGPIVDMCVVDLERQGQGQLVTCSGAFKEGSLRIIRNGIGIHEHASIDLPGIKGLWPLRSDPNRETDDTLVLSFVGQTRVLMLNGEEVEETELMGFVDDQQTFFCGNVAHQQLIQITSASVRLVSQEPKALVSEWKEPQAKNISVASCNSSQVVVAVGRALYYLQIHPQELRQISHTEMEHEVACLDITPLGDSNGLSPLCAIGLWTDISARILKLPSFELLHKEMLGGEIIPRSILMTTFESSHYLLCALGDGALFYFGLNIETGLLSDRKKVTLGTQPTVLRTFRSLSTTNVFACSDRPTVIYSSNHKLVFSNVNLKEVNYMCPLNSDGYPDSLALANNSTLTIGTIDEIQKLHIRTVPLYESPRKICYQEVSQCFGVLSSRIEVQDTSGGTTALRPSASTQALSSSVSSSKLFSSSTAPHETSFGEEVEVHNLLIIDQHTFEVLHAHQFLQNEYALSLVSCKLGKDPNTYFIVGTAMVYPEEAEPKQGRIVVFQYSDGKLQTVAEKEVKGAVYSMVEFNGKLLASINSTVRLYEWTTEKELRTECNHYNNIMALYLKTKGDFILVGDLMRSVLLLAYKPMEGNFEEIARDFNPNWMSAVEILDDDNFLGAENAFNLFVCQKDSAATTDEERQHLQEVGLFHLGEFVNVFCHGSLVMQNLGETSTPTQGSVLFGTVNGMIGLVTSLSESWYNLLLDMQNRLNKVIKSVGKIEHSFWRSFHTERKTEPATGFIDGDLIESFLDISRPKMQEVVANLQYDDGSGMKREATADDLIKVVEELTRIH", "assay": "biochemical", "details": "not given", "units": {"IC50": "µM"}, "values": [{"smiles": "O=C1CCC(N2Cc3cc4c(cc3C2=O)OCC42CCNCC2)C(=O)N1", "note": "(centres unmarked) [Compound A1, 3-(7-oxo-5,7-dihydro-2H,6H-spiro[furo[2,3-f]isoindole-3,4′-piperidin]-6-yl)piperidine-2,6-dione]", "IC50": 0.94}, {"smiles": "O=C1CCC(N2Cc3cc4c(cc3C2=O)CCOC42CCNCC2)C(=O)N1", "note": "(centres unmarked) [Compound A3, 3-(1′-oxo-1′,3′,7′,8′-tetrahydro-2′H-spiro[piperidine-4,5′-pyrano[3,4-f]isoindol]-2′-yl)piperidine-2,6-dione]", "IC50": 0.27}, {"smiles": "CN1CCC2(CC1)COc1cc3c(cc12)CN(C1CCC(=O)NC1=O)C3=O", "note": "(centres unmarked) [Compound A4, 3-(1′-methyl-7-oxo-5,7-dihydro-2H,6H-spiro[furo[2,3-f]isoindole-3,4′-piperidin]-6-yl)piperidine-2,6-dione]", "IC50": 0.096}, {"smiles": "CC(=O)N1CCC2(CC1)COc1cc3c(cc12)CN(C1CCC(=O)NC1=O)C3=O", "note": "(centres unmarked) [Compound A5, 3-(1′-acetyl-7-oxo-5,7-dihydro-2H,6H-spiro[furo[2,3-f]isoindole-3,4′-piperidin]-6-yl)piperidine-2,6-dione]", "IC50": 3.8}, {"smiles": "CN1CCC2(CC1)OCCc1cc3c(cc12)CN(C1CCC(=O)NC1=O)C3=O", "note": "(centres unmarked) [Compound A6, 3-(1-methyl-1′-oxo-1′,3′,7′,8′-tetrahydro-2′H-spiro[piperidine-4,5′-pyrano[3,4-f]isoindol]-2′-yl)piperidine-2,6-dione]", "IC50": 2.2}, {"smiles": "CC(=O)N1CCC2(CC1)OCCc1cc3c(cc12)CN(C1CCC(=O)NC1=O)C3=O", "note": "(centres unmarked) [Compound A7, 3-(1-acetyl-1′-oxo-1′,3′,7′,8′-tetrahydro-2′H-spiro[piperidine-4,5′-pyrano[3,4-f]isoindol]-2′-yl)piperidine-2,6-dione]", "IC50": 3}, {"smiles": "O=C1CCC(N2Cc3c(ccc4c3OCC43CCCNCC3)C2=O)C(=O)N1", "note": "(centres unmarked) [Compound A8, 3-(6′-oxo-6′,8′-dihydro-2′H,7′H-spiro[azepane-4,3′-furo[2,3-e]isoindol]-7′-yl)piperidine-2,6-dione]", "IC50": 0.75}, {"smiles": "O=C1CCC(N2Cc3c(ccc4c3OCC43CCNC3)C2=O)C(=O)N1", "note": "(centres unmarked) [Compound A9, 3-(6-oxo-6,8-dihydro-2H,7H-spiro[furo[2,3-e]isoindole-3,3′-pyrrolidin]-7-yl)piperidine-2,6-dione]", "IC50": 0.21}, {"smiles": "CC(C)(C)OC(=O)N1CCC2(CC1)COc1cc3c(cc12)CN(C1CCC(=O)NC1=O)C3=O", "note": "(centres unmarked) [Compound A14, tert-butyl 6-(2,6-dioxopiperidin-3-yl)-7-oxo-6,7-dihydro-2H,5H-spiro[furo[2,3-f]isoindole-3,4′-piperidine]-1′-carboxylate]", "IC50": 0.29}, {"smiles": "O=C1CC[C@H](N2Cc3c(ccc4c3OCC43CCNCC3)C2=O)C(=O)N1", "note": "[Compound A15, (S)-3-(6-oxo-6,8-dihydro-2H,7H-spiro[furo[2,3-e]isoindole-3,4′-piperidin]-7-yl)piperidine-2,6-dione]", "IC50": 0.055}, {"smiles": "O=C1CCC(N2Cc3c(ccc4c3OCC43CCNCC3(F)F)C2=O)C(=O)N1", "note": "(centres unmarked) [Compound A17, 3-(3′,3′-difluoro-6-oxo-6,8-dihydro-2H,7H-spiro[furo[2,3-e]isoindole-3,4′-piperidin]-7-yl)piperidine-2,6-dione]", "IC50": 0.23}, {"smiles": "O=C1CC[C@H](NC(=O)c2ccc3c(n2)OCC32CCNCC2)C(=O)N1", "note": "[Compound A18, (S)-N-(2,6-dioxopiperidin-3-yl)-2H-spiro[furo[2,3-b]pyridine-3,4′-piperidine]-6-carboxamide]", "IC50": "> 10000"}, {"smiles": "Cc1cc2c(c3c1C(=O)N([C@H]1CCC(=O)NC1=O)C3)OCC21CCNCC1", "note": "[Compound A19, (S)-3-(5-methyl-6-oxo-6,8-dihydro-2H,7H-spiro[furo[2,3-e]isoindole-3,4′-piperidin]-7-yl)piperidine-2,6-dione]", "IC50": 0.18}, {"smiles": "O=C1CC[C@H](N2Cc3c4c(cc(Cl)c3C2=O)C2(CCNCC2)CO4)C(=O)N1", "note": "[Compound A20, (S)-3-(5-chloro-6-oxo-6,8-dihydro-2H,7H-spiro[furo[2,3-e]isoindole-3,4′-piperidin]-7-yl)piperidine-2,6-dione]", "IC50": 0.038}, {"smiles": "COc1cc2c(c3c1C(=O)N([C@H]1CCC(=O)NC1=O)C3)OCC21CCNCC1", "note": "[Compound A21, (S)-3-(5-methoxy-6-oxo-6,8-dihydro-2H,7H-spiro[furo[2,3-e]isoindole-3,4′-piperidin]-7-yl)piperidine-2,6-dione]", "IC50": 0.17}, {"smiles": "COc1cc2c(c3c1C(=O)N([C@@H]1CCC(=O)NC1=O)C3)OCC21CCNCC1", "note": "[Compound A22, (R)-3-(5-methoxy-6-oxo-6,8-dihydro-2H,7H-spiro[furo[2,3-e]isoindole-3,4′-piperidin]-7-yl)piperidine-2,6-dione]", "IC50": 3.9}]}, {"molecular_target": "T3, P300 (Homo sapiens, UniProt Q09472)", "T3 construct": "endogenous in cells; host or cells: 22Rv1", "assay": "P300 degradation, western blot, 22Rv1", "type": "cell-based", "details": "22Rv1, 5 h", "procedure": "as §1", "units": {"DC50": "µM"}, "values": [{"smiles": "CC(=O)N1CCc2c(c(N3CCCc4cc(-c5cnn(C)c5)c(C(F)F)cc43)nn2C2CCN(CC(=O)N3CCC4(CC3)COc3c4ccc4c3CN([C@H]3CCC(=O)NC3=O)C4=O)CC2)C1", "note": "[CPD-001, (S)-3-(1′-(2-(4-(5-acetyl-3-(7-(difluoromethyl)-6-(1-methyl-1H-pyrazol-4-yl)-3,4-dihydroquinolin-1(2H)-yl)-4,5,6,7-tetrahydro-1H-pyrazolo[4,3-c]pyridin-1-yl)piperidin-1-yl)acetyl)-6-oxo-6,8-dihydro-2H,7H-spiro[furo[2,3-e]isoindole-3,4′-piperidin]-7-yl)piperidine-2,6-dione]", "DC50": "0.0001 to 0.001", "P300 Degradation DCmax": "A (A (≥90%))"}, {"smiles": "CC(=O)N1CCc2c(c(N3CCCc4cc(-c5cnn(C)c5)c(C(F)F)cc43)nn2C2CCN(C(=O)CN3CCC4(CC3)COc3c4ccc4c3CN([C@H]3CCC(=O)NC3=O)C4=O)CC2)C1", "note": "[CPD-002, (S)-3-(1′-(2-(4-(5-acetyl-3-(7-(difluoromethyl)-6-(1-methyl-1H-pyrazol-4-yl)-3,4-dihydroquinolin-1(2H)-yl)-4,5,6,7-tetrahydro-1H-pyrazolo[4,3-c]pyridin-1-yl)piperidin-1-yl)-2-oxoethyl)-6-oxo-6,8-dihydro-2H,7H-spiro[furo[2,3-e]isoindole-3,4′-piperidin]-7-yl)piperidine-2,6-dione]", "DC50": "< 0.0001", "P300 Degradation DCmax": "A (A (≥90%))"}]}]}
